Assay results from patent US20240318212A1, “PHOSPHORYLATION OF PHENOLIC PHYTOCHEMICALS BY TWO ENZYMES COUPLED SYSTEM” (National Taiwan University, priority 2023, published 2024).

Columns and labels:
[1] = versus parent genistein; cited from earlier work
[2] = versus parent genistein; cited from earlier work; remark: listed apart in the source
ovariectomized rats = details: comparable to estradiol and raloxifene, surpassed genistein; cited from earlier work
ErPPK = assay: Effect of polyphenol derivatives on ErPPK activity; assay type: biochemical, unclassified Erysipelotrichaceae bacterium; details: 0.25 mM
From the text: FIG. 4 illustrates the effect of polyphenol derivatives on ErPPK. Data are mean SD (n=3), with significance indicated by p<0.05 using t-test. n.s., non-significance.
Considering the known inhibitory effect of aromatic phosphonates on PPK2 enzymes, we investigated the impact of polyphenols and polyphenol phosphates on ErPPK activity to evaluate their integration into a one-pot bi-enzymatic system. LUT was selected as the polyphenol target, based on its incomplete conversion in microbial systems due to its toxic nature.

| SMILES | solubility [1] | oral bioavailability [2] | osteoprotective effects (ovariectomized rats) | inhibitory effect on ErPPK activity (ErPPK) |
| --- | --- | --- | --- | --- |
| O=c1c(-c2ccc(O)cc2)coc2cc(OP(=O)(O)O)cc(O)c12 [Genistein 7-O-phosphate] | improved | improved | improved |  |
| O=c1cc(-c2ccc(O)c(O)c2)oc2cc(O)cc(O)c12 [LUT, luteolin] |  |  |  | no significant inhibitory effect |
